Reference: patent US20090131484A1, “PREVENTIVE OR REMEDY FOR BOWEL DISEASE” (ASTELLAS PHARMA INC, priority 2005, published 2009)

What was measured:
[1] = system: TNBS-induced chronic colitis; experiment: Rat TNBS-induced chronic colitis model; conditions: Wistar rats
[2] = system: T84 cells; experiment: Chloride-dependent short circuit current (Isc) in human intestinal epithelial cells, Ussing system; type: cell-based; conditions: for effect on forskolin-induced Isc increase: forskolin 10 μM; for effect on thapsigargin-induced continuous Isc increase / effect on transient Isc increase seen before the sustained Isc increase: thapsigargin 1 μM
Experimental: It is known that water secretion from epithelial cells is correlated with chloride ion secretion, and the effect to water secretion from epithelial cells may be evaluated through chloride-dependent current measurement.
T84 cells, a human colon epithelial cell-derived cell line, were purchased from American Type Culture Collection (ATCC, USA). T84 cells (3×10^5 cells/well) were cultured on a polyethylenic mesh insert (Transwell® by Corning, USA)) on a 6-well microplate for 10 to 12 days. As the culture medium, 5% bovine calf serum-containing DMEM/F-12 (Gibco, USA) was used. The cultured T84 cells were set in the sample chamber of an Ussing short-circuit current measuring system, and the chloride-dependent short circuit current (Isc) was measured. Isc was induced by adding thapsigargin (1 μM) or forskolin (10 μM) to the T84 cell monolayer specimen at its top on the membrane side thereof. […] In each test, the data obtained by DPC addition were taken as chloride-dependent Isc base line data, and the effect of each test compound was revised.

[3] = system: antigen-induced diarrhea; experiment: Mouse antigen-induced diarrheal model; type: in vivo; conditions: Balb/c mice, OVA
Experimental: Balb/c female mice were used in this test. The animals were immunized through intraperitoneal administration of 50 μg of ovalbumin (OVA) and 1 mg of aluminium gel (alum), and after 2 weeks from the first immunization, they were again immunized under the same condition. […] The diarrheal condition was checked 1 hour after the OVA administration.

[4] = system: cholera toxin-induced intestinal hypersecretion; conditions: mouse, in vivo; for effect on cholera toxin-induced intestinal hypersecretion: iv, 1 mg/kg
[5] = system: restrictive stress-induced diarrhea; experiment: Rat stress-induced diarrheal model; type: in vivo; conditions: Wister rats
Experimental: Wister male rats were used in this test. The animals were restrained in individual restrictive cages for 4 hours and given stress thereby to have diarrhea. […] Each group consisted of 19 to 20 animals. The statistical pharmaceutical potency analysis of the test compound was attained as a significant chi-square test, and its multiplicity was corrected by Bonferroni multiple comparison.

[6] = system: oxazolone-induced acute colitis; experiment: Rat oxazolone-induced acute colitis model; conditions: DA rats

## O=C(O)c1cc(/N=N/c2ccc(S(=O)(=O)Nc3ccccn3)cc2)ccc1O [SSZ, sulfasalazine, reference compound]
[1]; 100 mg/kg po once a day
  effect on TNBS-induced colitis model: showed a relieving effect
[1]; TNBS colitis
  effect relative to that of the compound A (weaker): 1/500

## Clc1ccc(COC(Cn2ccnc2)c2ccc(Cl)cc2Cl)cc1 (centres unmarked) [econazole, reference compound]
[2]
  effect on forskolin-induced Isc increase: dose-dependently inhibited
  effect on thapsigargin-induced continuous Isc increase: inhibited
  effect on transient Isc increase seen before the sustained Isc increase: did not affect

## C[C@]12C=CC(=O)C=C1CC[C@@H]1[C@@H]2[C@@H](O)C[C@@]2(C)[C@H]1CC[C@]2(O)C(=O)CO [Pred, prednisolone, reference compound]
[3]; 10 mg/kg po 1 hour before OVA
  effect on antigen-induced diarrhea (diarrheal symptom): almost completely inhibited

## CN1C2CCCC1CC(NC(=O)c1nn(C)c3ccccc13)C2 (centres unmarked) [Gra, granisetron, reference compound]
[4]
  effect on cholera toxin-induced intestinal hypersecretion: effective

## Cc1cc(C)c(C(=O)Nc2ccc(-n3nc(C(F)(F)F)cc3C(F)(F)F)cc2)cn1 [compound A, 4,6-Dimethyl-4′-[3,5-bis(trifluoromethyl)-1H-pyrazol-1-yl]nicotinanilide]
[2]
  effect on forskolin-induced Isc increase: dose-dependently inhibited
  effect on thapsigargin-induced continuous Isc increase: inhibited
  effect on transient Isc increase seen before the sustained Isc increase: did not affect
[4]; po
  effect on cholera toxin-induced intestinal hypersecretion (ileal loop weight per unit length): dose-dependently inhibited
  oral dose at which inhibition of cholera toxin-induced intestinal hypersecretion was significant: ≥ 0.3 mg/kg
[5]; 10 mg/kg oral administration group
  effect on incidence rate of restrictive stress-induced diarrhea: significant inhibition
[5]; 1.0 or 10 mg/kg po 24 hours and 1 hour before 4 hours restraint
  effect on incidence rate of restrictive stress-induced diarrhea: dose-dependently inhibited
[3]; 3 or 10 mg/kg po 1 hour before OVA
  effect on incidence rate of antigen-induced diarrhea: dose-dependently inhibited
[1]; 0.3 mg/kg po once a day
  effect on MPO activity exacerbation: inhibition of MPO activity exacerbation
  effect on diarrheal symptom: diarrheal symptom relief
  effect on intestinal tissue weight increase: inhibition of intestinal tissue weight increase
[1]; 0.3 mg/kg po once a day, 15 days after colitis induction
  effect on disease activity index: significant improvement effect
[6]; at least 0.1 mg/kg oral administration
  effect on diarrheal symptom: almost completely inhibited
[6]; oral 0.1, 1.0 or 10 mg/kg
  effect on MPO activity promotion: MPO activity promotion inhibition
  effect on diarrheal symptom: diarrheal symptom relief
  effect on intestinal tissue weight increase: intestinal tissue weight increase inhibition
[6]; oral 0.1, 1.0 or 10 mg/kg, 24 hours after colitis onset
  effect on disease activity index: significant improvement effect
[6]; oxazolone colitis
  dose for diarrhea-inhibiting effect relative to dose for colitis symptom relieving effect: about 1/100

## CN(C)C(=O)C(CCN1CCC(O)(c2ccc(Cl)cc2)CC1)(c1ccccc1)c1ccccc1 [Lop, loperamide, reference compound]
[4]
  effect on cholera toxin-induced intestinal hypersecretion: effective
